Results on 11 compounds are retold here after US20240190890A1, “MK2 INHIBITORS AND USES THEREOF” (Bristol-Myers Squibb Company, priority 2022, published 2024).

p38a activated, mitogen-activated protein kinase-activated protein kinase 2 (MAPKAP-K2 or MK2) enzyme, sequence (P49137 whole entry): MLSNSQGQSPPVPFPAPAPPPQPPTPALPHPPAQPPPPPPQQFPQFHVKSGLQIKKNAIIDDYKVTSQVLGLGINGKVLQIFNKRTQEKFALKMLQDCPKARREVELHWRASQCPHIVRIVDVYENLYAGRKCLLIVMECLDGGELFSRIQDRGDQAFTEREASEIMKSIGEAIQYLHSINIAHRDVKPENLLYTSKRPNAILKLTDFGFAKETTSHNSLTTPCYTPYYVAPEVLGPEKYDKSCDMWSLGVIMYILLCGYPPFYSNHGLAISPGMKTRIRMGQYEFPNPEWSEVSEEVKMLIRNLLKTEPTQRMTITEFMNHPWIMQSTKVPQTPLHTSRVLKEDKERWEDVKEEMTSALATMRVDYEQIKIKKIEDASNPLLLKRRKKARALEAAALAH

The assay has as its target p38a activated, mitogen-activated protein kinase-activated protein kinase 2 (MAPKAP-K2 or MK2) enzyme (Homo sapiens (Human), UniProt P49137). In words: MK2 Omnia continuous-read kinase assay for compound potency. In kind it is biochemical. The settings on record: [MK-2]=0.4 nM, [ATP]=10 μM, [ST3-Sox]=10 μM; room temperature. The gist of the method: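 Continuous Sox-peptide fluorescence read (ex360/em485) every 71 s over 2 h at room temperature. Reactions: 10 μM each of ATP (at apparent Km) and S/T3-Sox, 0.4 nM p38a-activated MK2, pH 7.5 Tris/MgCl2 buffer. Initial rates yield % inhibition and IC50; single-exponential kobs values yield apparent kinact/KI.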
As usually defined, the IC50 is the concentration that gives 50% inhibition. Consider `C#Cc1cc(-c2ccc3c(ccc4sc5c(c43)NC[C@@H](C)NC5=O)n2)cc(C2CCN(C)CC2)n1` [Example I-107, (R)-3-(2-ethynyl-6-(1-methylpiperidin-4-yl)pyridin-4-yl)-10-methyl-9,10,11,12-tetrahydro-8H-[1,4]diazepino[5′,6′:4,5]thieno[3,2-f]quinolin-8-one], for which the half-maximal inhibitory concentration (IC50) was 22 nM.

For `C=C(F)c1cc(-c2ccc3c(ccc4sc5c(c43)NC[C@@H](C)NC5=O)n2)ccn1` [Example I-108, (R)-3-(2-(1-fluorovinyl)pyridin-4-yl)-10-methyl-9,10,11,12-tetrahydro-8H-[1,4]diazepino[5′,6′:4,5]thieno[3,2-f]quinolin-8-one], the IC50 worked out at 122 nM.

As for `C=Cc1cc(-c2ccc3c(ccc4sc5c(c43)NC[C@@H](C)NC5=O)n2)c(C)cn1` [Example I-109, (R)-10-methyl-3-(5-methyl-2-vinylpyridin-4-yl)-9,10,11,12-tetrahydro-8H-[1,4]diazepino[5′,6′:4,5]thieno[3,2-f]quinolin-8-one], the IC50 is 4 nM.

For `C=Cc1cc(-c2ccc3c(ccc4sc5c(c43)NC[C@@H](C)NC5=O)n2)cc(C)n1` [Example I-110, (R)-10-methyl-3-(2-methyl-6-vinylpyridin-4-yl)-9,10,11,12-tetrahydro-8H-[1,4]diazepino[5′,6′:4,5]thieno[3,2-f]quinolin-8-one], the 50% inhibitory concentration (IC50) stood at 8 nM.

Turning to `C#Cc1cc(-c2ccc3c(ccc4sc5c(c43)NC[C@@H](C)NC5=O)n2)c(C)cn1` [Example I-111, (R)-3-(2-ethynyl-5-methylpyridin-4-yl)-10-methyl-9,10,11,12-tetrahydro-8H-[1,4]diazepino[5′,6′:4,5]thieno[3,2-f]quinolin-8-one], the IC50 amounted to 104 nM.

As to `C#Cc1cc(-c2ccc3c(ccc4sc5c(c43)NC[C@@H](C)NC5=O)n2)cc(C)n1` [Example I-112, (R)-3-(2-ethynyl-6-methylpyridin-4-yl)-10-methyl-9,10,11,12-tetrahydro-8H-[1,4]diazepino[5′,6′:4,5]thieno[3,2-f]quinolin-8-one], the 50% inhibitory concentration (IC50) came out at 152 nM.

`C/C=C/c1cc(-c2ccc3c(ccc4sc5c(c43)NC[C@@H](C)NC5=O)n2)ccn1` [Example I-113, (R,E)-10-methyl-3-(2-(prop-1-en-1-yl)pyridin-4-yl)-9,10,11,12-tetrahydro-8H-[1,4]diazepino[5′,6′:4,5]thieno[3,2-f]quinolin-8-one]: the IC50 came to 53 nM.

As to `C[C@@H]1CNc2c(sc3ccc4nc(-c5ccnc(/C=C/CN(C)C)c5)ccc4c23)C(=O)N1` [Example I-114, (R,E)-3-(2-(3-(dimethylamino)prop-1-en-1-yl)pyridin-4-yl)-10-methyl-9,10,11,12-tetrahydro-8H-[1,4]diazepino[5′,6′:4,5]thieno[3,2-f]quinolin-8-one], the 50% inhibitory concentration (IC50) came to 11 nM.

For `C[C@@H]1CNc2c(sc3ccc4nc(-c5cc(/C=C/CN(C)C)ncn5)ccc4c23)C(=O)N1` [Example I-115, (R,E)-3-(6-(3-(dimethylamino)prop-1-en-1-yl)pyrimidin-4-yl)-10-methyl-9,10,11,12-tetrahydro-8H-[1,4]diazepino[5′,6′:4,5]thieno[3,2-f]quinolin-8-one], the IC50 was 37 nM.

As to `C=C(CN1CCCC1)c1cc(-c2ccc3c(ccc4sc5c(c43)NC[C@@H](C)NC5=O)n2)ccn1` [Example I-116, (R)-10-methyl-3-(2-(3-(pyrrolidin-1-yl)prop-1-en-2-yl)pyridin-4-yl)-9,10,11,12-tetrahydro-8H-[1,4]diazepino[5′,6′:4,5]thieno[3,2-f]quinolin-8-one], the half-inhibitory concentration (IC50) came to 6 nM.

Turning to `C=C(CN(C)C)c1cc(-c2ccc3c(ccc4sc5c(c43)NC[C@@H](C)NC5=O)n2)ccn1` [Example I-117, (R)-3-(2-(3-(dimethylamino)prop-1-en-2-yl)pyridin-4-yl)-10-methyl-9,10,11,12-tetrahydro-8H-[1,4]diazepino[5′,6′:4,5]thieno[3,2-f]quinolin-8-one], the half-maximal inhibitory concentration (IC50) is 6 nM.
